Assay results from US4109011A, “Insecticide carbamates of N-(polychloroallyl)-amino-phenols” (priority 1975, dated 1978).
Like-named read-outs stand apart in the source and are kept apart here.

Legend:
[1] = test system: parasites; conditions: vs N-dimethyl substituted homolog; Miskus et al 1968; cited from earlier work
[2] = test system: Macrosiphum Euphorbiae; assay: Biological activity on Macrosiphum euphorbiae (aphides), potato seedlings sprayed with aqueous dispersion; assay type: in vivo
Method: Biological Activity on Macrosiphum Euphorbiae (Aphides)
Potato seedlings, cultivated in pots, were infested with adult aphide females and, after a few hours, were sprayed with an aqueous dispersion of the compounds listed in Table 6. The mortality percentage was determined 24 hours after the treatment (on control non-treated seedlings, the mortality percentage was 0).
(§1) To show the variation in activity from one compound to another, depending on the species used, the activities of compounds according to this invention were investigated at different concentrations, expressed as percent of active principle, on various infesting species. The mortality percentage was computed in the same way as in the preceding examples.

[3] = test system: Culex Pipiens; assay: Biological activity on Culex pipiens (mosquito larvae in aqueous dispersion); assay type: in vivo
Excerpt: Biological Activity on Culex Pipiens (Diptera)
Mosquito larvae of the third and fourth ages were introduced into glass pots containing an aqueous dispersion of the compounds shown at 2 ppm and 0.2 ppm.
as §1

[4] = test system: Musca Domestica; assay: Biological activity on Musca domestica, topical application to adults; assay type: in vivo; conditions: read-out: Percent of Mortality
Method: Biological Activity on Musca Domestica (Diptera)
Four day old adults were treated by topical application through a microsyringe with 1 mm^3 of an acetonic solution of the compounds shown in such concentrations that they received doses of 5γ/insect; 2γ/insect; 0.5γ/insect of active principle. The mortality percentage 24 hours after the treatment is reported in Table 8 (mortality of insects treated with 1 mm^3 of acetone = 0).

[5] = test system: Leptinotarsa Decimlineata; assay: Biological activity on Leptinotarsa decemlineata larvae, sprayed potato seedlings; assay type: in vivo
Excerpt: Biological Activity on Leptinotarsa Decimlineata Coleoptera
Potato seedlings cultivated in pots were infested with 4-day old larvae and sprayed with an aqueous dispersion of the compounds according to this invention and Aminocarb as a comparison at doses of […]; respectively. The mortality percentage of the control, untreated seedlings, was zero.
as §1

[6] = test system: Tetranychus Urticae; assay: Biological activity on Tetranychus urticae eggs, bean leaf discs; assay type: in vivo
Excerpt: Biological Activity on Tetranychus Urticae (Acari)
Small discs of bean leaves were infested with acarus eggs and successively treated by spraying with an aqueous dispersion of a compound of this invention and Aminocarb as a comparison, at concentrations of 0.1 and 0.01%. The mortality percentage of the control, untreated discs, was zero.
as §1

[7] = test system: Meloidogyne Incognita; assay: Biological activity on Meloidogyne incognita (nematocide activity, galls on tomato seedlings); assay type: in vivo; conditions: vs control
Method: Biological Activity on Meloidogyne Incognita (Nematoda)
A 1:1 mixture of field earth and sand infested by new-born larvae and eggs of the nematode was treated by uniformly mixing with a hydroacetone dispersion (20% by vol. of acetone) at a concentration of 0.1% and of 0.02% of the compounds under test so as to get soil samples containing 100 ppm and 20 ppm, respectively, of active principle. The soil was introduced into plastic pots and after 5 days, 5 tomato seedlings about 15 cm high were transplanted into each of them. Fourteen days after transplantation, the roots of the seedlings extracted from the soil were examined in order to determine the degree of infestation by counting the galls which had formed.
The nematocide activity is expressed in Table 13 as the percentage of infestation reduction with respect to the control (seedlings transplanted into the same soil treated with a dispersion free from active principle).

[8] = test system: Leptinotarsa Decimlineata; assay: Biological activity on Leptinotarsa decemlineata larvae, sprayed potato seedlings; assay type: in vivo; conditions: read-out: Percent of Mortality
[9] = Acute toxicity on white rats, administered orally; conditions: rat, in vivo, po
[10] = test system: Pieris Brassicae; assay: Biological activity on Pieris brassicae larvae, sprayed cut cauliflower leaves; assay type: in vivo
Excerpt: Biological Activity on Pieris Brassicae (Lepidoptera)
Cut leaves of cauliflower were sprayed with an aqueous dispersion of compound according to this invention at a 0.1% concentration. After drying, they were infested with 5-day old larvae. The mortality percentage of the control, untreated leaves, was zero.
as §1

[11] = test system: Tetran Urt. adults; assay: Activity on Tetranychus urticae adults (Table 14); assay type: in vivo; conditions: 1% a.p., read-out: % mort. Tetran. Urt. adults
Excerpt: as §1

[12] = test system: Culex Pipiens; assay: Biological activity on Culex pipiens (mosquito larvae in aqueous dispersion); assay type: in vivo; conditions: read-out: % mort. Culex Pipiens
[13] = 24 h, read-out: Percent of Mortality
[14] = read-out: % mort. Macrosiphum Euphorbiae
[15] = read-out: % mort. Culex Pipiens
[16] = read-out: % mort. Leptinot. Decemlin.

**Q.** For `CNC(=O)Oc1cc(C)c(NC)c(C)c1`, which relative insecticidal activity [1] is on record?
**A.** only a bit less active than the N-dimethyl substituted homolog

**Q.** For `CNC(=O)Oc1ccc(N(C)C)c(C)c1` [Aminocarb, reference compound], which mortality at 0.01 % ([2]; 0.01 percent dispersion, 24 hours, read-out: Mortality Percent) is on record?
**A.** 46%

**Q.** What about the mortality at 0.2 ppm ([3]; 0.2 ppm, 24 hours, read-out: Percent of Mortality) of the same molecule?
**A.** 0%

**Q.** What about the mortality at 2 ppm ([3]; 2 ppm, 24 hours, read-out: Percent of Mortality) of the same molecule?
**A.** 25%

**Q.** What about the mortality at 0.5 µg/insect ([4]; 0.5 γ per insect, 24 hours) of the same molecule?
**A.** 0%

**Q.** And the mortality at 2 µg/insect ([4]; 2 γ per insect, 24 hours)?
**A.** 50%

**Q.** What about the mortality at 5 µg/insect ([4]; 5 γ per insect, 24 hours) of the same molecule?
**A.** 85%

**Q.** And the mortality at 0.1 % ([5]; 0.1% concentr., larvae, read-out: Percent of Mortality)?
**A.** 100%

**Q.** And the mortality at 0.01 % ([6]; foliar, 0.01%, eggs, read-out: Percent of Mortality)?
**A.** 0%

**Q.** And the mortality at 0.1 % ([6]; foliar, 0.1%, eggs, read-out: Percent of Mortality)?
**A.** 40%

**Q.** And the “Reduction of Infestation” value ([7]; 20 ppm in soil)?
**A.** 0%

**Q.** What about the “Reduction of Infestation” value ([7]; 100 ppm in soil) of the same molecule?
**A.** 95%

**Q.** And the mortality at 0.01 % ([8]; 0.01% concentr., larvae)?
**A.** 45%

**Q.** And the LD50 [9]?
**A.** 30 mg/kg

**Q.** What does the source list for `CNC(=O)Oc1ccc(C)c(NCC=C(Cl)Cl)c1` [M 6430, N-methylcarbamate of 4-methyl-3-(3,3-dichloroallylamino)-phenol]?
**A.** mortality at 0.01 % ([2]; 24 h, read-out: Mortality Percent): 84%; mortality at 0.2 ppm [3, 13]: 80%; mortality at 2 ppm [3, 13]: 100%; mortality at 0.5 µg/insect ([4]; 24 h): 100%; mortality at 2 µg/insect ([4]; 24 h): 100%; mortality at 5 µg/insect ([4]; 24 h): 100%; mortality at 0.1 % ([5]; read-out: Percent of Mortality): 100%; mortality at 0.1 % ([10]; 0.1 percent, larvae, read-out: Percent of Mortality): 100%; Reduction of Infestation ([7]; 20 ppm in soil): 88%; Reduction of Infestation ([7]; 100 ppm in soil): 100%; mortality at 0.01 % [8]: 100%; LD50 [9]: 100 mg/kg

**Q.** With `CNC(=O)Oc1cccc(NCC=C(Cl)Cl)c1` [M 7360] as the molecule, how does the mortality at 0.01 % [2, 14] read?
**A.** 42%

**Q.** And the mortality at 0.1 % [2, 14]?
**A.** 95%

**Q.** And the mortality at 1 % [2, 14]?
**A.** 100%

**Q.** And the mortality at 0.2 ppm [3, 15]?
**A.** 37%

**Q.** And the mortality at 2 ppm [3, 15]?
**A.** 100%

**Q.** And the mortality at 0.01 % [5, 16]?
**A.** 0%

**Q.** What about the mortality at 0.1 % [5, 16] of the same molecule?
**A.** 100%

**Q.** What about the mortality at 1 % [5, 16] of the same molecule?
**A.** 100%

**Q.** What about the mortality at 1 % ([10]; Table 14, 1% a.p., read-out: % mort. Pieris Brassicae) of the same molecule?
**A.** 45%

**Q.** And the mortality at 1 % ([6]; topical, read-out: % mort. Tetran. Urt. eggs)?
**A.** 6%

**Q.** And the mortality at 1 % [11]?
**A.** 23%

**Q.** And the mortality at 0.02 ppm [12]?
**A.** 0%
